Positions of bridges follow the written chain, without caps; N, C: chain ends. No end group written: not given here.
Experiments:
[1] = system: beta1-receptor antibodies; test: in vivo prevention study: five prophylactic peptide applications, serum antibody-titers by ELISA; set-up: species or system rat; conditions: 1.0 mg/kg body weight i.v., 4-weekly, prevention protocol (FIG. 12)
Method: FIG. 12 is a diagram resuming the in vivo blocking capacity of in total five (prophylatic) applications of various linear and cyclic beta1-ECII-peptides, started 3 months after the first immunization (and two subsequent beta1-ECII/GST-antigen-boosts, corresponding to a prevention protocol). Serum-titers of the beta1-receptor antibodies were determined before and 18-20 h after each peptide injection (abscissa, time in months) and are given in % of the corresponding antibody-titers of immunized untreated rats (y-axis, ordinate). The injected peptides were: 25AA Cys/Cys linear peptide (black squares), […] (white squares), 18AA Cys/Cys cyclopeptide (black diamond), 18AA Cys/Ser cyclopeptide mutant (white diamonds), and the 18AA Cys/Ser linear peptide mutant (vertically hatched diamonds). […] Black circles indicate antibody-titers of untreated regularly (every 4 weeks) immunized animals serving as reference, set at 100%.
The in-vivo blocking effects of both 25AA and 18AA Cys/Ser mutant cyclopeptides (with a Gln closure site), the 18AA Ser/Cys mutant cyclopeptide, and a mutated linear 18AA Cys/Ser peptide were analyzed after intravenous (i.v.) injection of 1.0 mg/kg body weight (Bw) of each construct into freshly immunized antibody-positive rats (i.e., use of cyclo-peptides in a kind of “prevention” study), with a first cyclopeptide-application 3 months after the initial immunization (and two subsequent boost at months 2 and 3). In total, five prophylactic applications of the various constructs were given at 4-weekly intervals, always two weeks after the monthly continued antigen boost. Sera were drawn 18-20 hours after i.v. injection and assayed for reactivity by ELISA using the 3 Cys-containing linear 25AA Cys/Cys-peptide as an antigen (FIG. 12).

anti-β1-ECII antibodies = test: ELISA-competition assay: peptide preincubated with sera/IgG of immunized antibody-positive rats, linear 25AA Cys/Cys-peptide as antigen; type: binding, rat; set-up: blocking capacity (% of blocked versus non-blocked ELISA-reactivity): concentration or dose not given beside the values; conditions: for decrease in circulating free anti-beta1-ECII antibodies: n=6 sera (FIG. 11); for blocking capacity (% of blocked versus non-blocked ELISA-reactivity): IgG from n=78 immunized antibody-positive rats, preincubation 12 h, mutants with D-Glu ring closure (FIG. 7); for blocking capacity (% of blocked versus non-blocked ELISA-reactivity) / blocking-efficiency versus unblocked sera: 4° C.; for blocking capacity (% of blocked versus non-blocked ELISA-reactivity) / blocking efficiency (% of blocked versus non-blocked ELISA reactivity) / blocking capacity (% of blocked versus non-blocked ELISA reactivity): ±SEM; for blocking-efficiency versus unblocked sera: n=6 sera, incubation 12-14 h, mean ±SEM (FIG. 27); for blocking efficiency (% of blocked versus non-blocked ELISA reactivity): type1 sera (93%, n=64 of 69), FIG. 9 upper panel; for blocking capacity (% of blocked versus non-blocked ELISA reactivity): type 2 sera (7%, n=5 of 69), FIG. 9 lower panel
Method: FIG. 9 is a diagram composed of two major-(upper and lower) panels resuming the blocking effect of both 25AA- and 18AA-cyclopeptide mutants having a Gln closure site, as well as 18AA cyclopeptide mutants having a D-Glu closure site after preincubation (12 h, 4° C., rotating incubation) with sera isolated from 69 different immunized antibody-positive rats in an ELISA-competition assay using the 3 Cys-containing linear 25AA Cys/Cys-peptide as an antigen. The upper panel depicts rat sera preferentially reacting with the Cys/Ser mutated cyclopeptides (type1 reaction, n=64), separated in cyc25AA(Gln)-peptides (left) and cyc18AA(Gln and D-Glu)-peptides (right). The lower panel depicts the rat sera reacting with both the Cys/Ser and the Ser/Cys mutated cyclopeptides (type2 reaction, n=5), again separated in the results obtained with cyc25AA(Gln)-peptides (left) and cyc18AA(Gln and D-Glu)-peptides (right).
FIG. 11 is a diagram resuming the dose-dependent (x-axis, abscissa: fold molar excess of specific peptides) blocking capacity of various linear and cyclic beta1-ECII-peptides given in % of the unblocked antibody-titer (y-axis, ordinate), including 25AA Cys/Cys linear peptides (black squares), 25AA Cys/Ser cyclopeptide mutants (white squares), 18AA Cys/Cys cyclo-peptides (black diamonds), 18AA Cys/Ser cyclopeptide mutants (white diamonds), and 18AA Cys/Ser linear peptide mutants (vertically hatched diamonds) in an ELISA competition assay performed with sera from n=6 randomly chosen immunized antibody-positive rats.
FIGS. 27A and B depict the in vitro blocking (=neutralization) capacity of various cysteine-containing cyclopeptide variants of the second extracellular loop (ECII) of the human beta1-adrenergic receptor, determined by testing n=6 individual sera (27A) of immunized beta1-ECII-antibody-positive rats after over-night incubation with the indicated cyclopeptides (12-14 h, 4° C.) by ELISA. Columns in 27A represent the receptor-antibody blocking efficiency of the indicated cyclopeptides in % of the antibody-(ELISA-)signals obtained with unblocked antibody-positive rat sera. Columns in 27B represent the mean blocking efficiency for each cyclopeptide, error bars indicate ±SEM.
The blocking capacity of β1-ECII-18AA cyclopeptide mutants (Cys13-Ser14 or Ser13-Cys14 mutation having an additional D-Glu-Gln exchange, e.g. at the ring closure site) was compared with the 3 Cys-containing 25AA or 18AA Cys/Cys cyclopeptides after preincubation (12 h, 4° C., rotating incubation over-night) of different numbers of sera from immunized antibody-positive rats in an ELISA-competition assay using the 3 Cys-containing linear 25AA Cys/Cys-peptide as an antigen. FIGS. 4, 5, and 7-10 show the results from measurements performed with sera of n=12 up to n=82 immunized antibody-positive rats using different cyclopeptides of the present invention.

[2] = system: anti-beta1-receptor antibody-titers; test: in vivo therapy study in long term immunized cardiomyopathic rats: antibody-titers by ELISA; set-up: species or system rat
Method: FIG. 16A is a diagram resuming the in vivo blocking effect of both 25AA and 18AA cyclopeptide mutants with a Gln closure site, determined after a total of nine intravenous (i.v.) in-jections of 1.0 mg/kg body weight (Bw) of the indicated peptides into immunized antibody-positive rats. Sera were drawn before and 18-20 hours after i.v. injection of the various peptides every 4 weeks (abscissa: time in months of treatment) and assayed for reactivity by ELISA using the 3 Cys-containing linear 25AA Cys/Cys-peptide as an antigen.
FIG. 16B is a diagram resuming the in vivo blocking effect of various concentrations of 18AA cyclopeptide mutants with a Gln closure site, determined after a total of nine intra-venous (i.v.) injections of 0.25, 1.0, 2.0, and 4.0 mg/kg body weight (Bw) into immunized antibody-positive rats, irrespective of the cyclopeptide “responder-state” of individual animals. Sera were drawn before and 18-20 hours after i.v. injection of the various peptides every 4 weeks (abscissa: time in months), and assayed for reactivity by ELISA using the 3 Cys-containing linear 25AA Cys/Cys-peptide as an antigen.
Sera were drawn as described above and assayed for reactivity by ELISA using the 3 Cys-containing linear 25AA Cys/Cys-peptide as an antigen.
Moreover, the in vivo blocking effects of therapeutically used 25AA and 18AA Cys/Ser cyclo-peptide mutants, the 18AA Ser/Cys mutant (Gln-)cyclopeptide, and a mutated linear 18AA Cys/Ser peptide were assessed after a first intravenous (i.v.) dose (i.e., 1.0 mg/kg body weight (Bw)) of each construct injected into long term immunized anti-beta1-ECII antibody-positive rats, yet presenting a cardiomyopathic phenotype (after nine months of 1× monthly immunization with the beta1-ECII/GST antigen; FIGS. 14-16 and 17). Sera were drawn 18-20 hours after the first i.v. injection of the various constructions and assayed for reactivity by ELISA using the 3 Cys-containing linear 25AA Cys/Cys-peptide as an antigen.
The latter doses were almost equally efficient in terms of both, neutralization of circulating receptor antibodies (FIGS. 16b and c), and reversal of antibody-induced cardiomyopathic features (FIGS. 17b, 19b, 20, and 21b).
In order to generate anti-β1-receptor antibodies the animals were immunized with a fusion protein containing bacterial glutathione-S-transferase and the sequence of the second extra-cellular loop of the human β1-adrenergic receptor (GST/β1-ECII). Before treatment of the animals with mutated cyclopeptides according to the present invention, progressive dilated immune cardiomyopathy is observed after 6 to 8 months of regular immunization every four weeks (FIG. 17). All of the immunized animals developed high titers of stimulatory anti-β1-ECII antibodies. The specific anti-β1-ECII titer reached a maximum between 6 and 8 months of continuously boosting the animals every 4 weeks, whereas NaCl-injected control animals developed no specific receptor antibodies (FIG. 18).
Such immunized animals were used for the application of mutant cyclopeptides according to the present invention. The in-vivo blocking effect of both 25AA and 18AA Cys/Ser mutant cyclopeptides (with a Gln closure site) were determined after a first intravenous (i.v.) injection of 1.0 mg/kg body weight (Bw) (for 18AA Cys/Ser cyclopeptides also 0.25 mg/kg/Bw) into immunized antibody-positive rats. Sera were drawn 18-20 hours after i.v. injection of the different peptides and assayed for reactivity by ELISA using the 3 Cys-containing linear 25AA Cys/Cys-peptide as an antigen.

[3] = 20-fold molar excess of peptide
[4] = 80-fold molar excess of peptide

Substance	antibody-titer decrease after 5 injections, compared with untreated immunized animals [1] [%]	decrease in circulating free anti-beta1-ECII antibodies (anti-β1-ECII antibodies; 8-fold molar excess of peptide) [%]	decrease in circulating free anti-beta1-ECII antibodies (anti-β1-ECII antibodies; [3]) [%]	decrease in circulating free anti-beta1-ECII antibodies (anti-β1-ECII antibodies; [4])	blocking capacity (% of blocked versus non-blocked ELISA-reactivity) (anti-β1-ECII antibodies) [%]	blocking-efficiency versus unblocked sera (anti-β1-ECII antibodies) [%]	blocking efficiency (% of blocked versus non-blocked ELISA reactivity) (anti-β1-ECII antibodies) [%]	blocking capacity (% of blocked versus non-blocked ELISA reactivity) (anti-β1-ECII antibodies) [%]	initial transient increase in antibody-titers ([2]; 1.0 mg/kg Bw (FIGS. 16a and b))	absolute decrease in antibody-titers after 9 months of treatment, of the titer at start of therapy ([2]; 1.0 mg/kg i.v. every 4 weeks) [%]	in vivo blocking capacity after the first i.v. injection ([2]; 1 mg/kg Bw, sera 18-20 hours after injection (FIGS. 14 and 15))	fraction of rat sera blocked by the peptide (anti-β1-ECII antibodies; n=69 sera, (Gln-)cyclopeptide mutants (FIG. 10), Cys/Ser = blocked by it alone (n=64), Ser/Cys = sera blocked by both (n=5))
18AA Cys/Cys cyclopeptides: (non-mutated) 3 Cys-containing β1-ECII-homologous 18AA cyclopeptide (cyclo(ADEARRCYNDPKCCDFVQ); not fully specified (bridges); cysteine pairing not given here) [reference compound]	89.9±3	46	56	71%	60±4	66.1±7.0	59±2	67±6	–	–	–	–
ARAESDEARRCYNDPKCCDFVTNRQ (cysteine pairing not given here) [linear 25AA Cys/Cys peptides, reference compound]	25.8±3	24	35	about 50%	55±4	–	–	–	–	–	–	–
Cyclo-Ala-Arg-Ala-Glu-Ser-Asp-Glu-Ala-Arg-Arg-Cys-Tyr-Asn-Asp-Pro-Lys-Cys-Ser-Asp-Phe-Val-Thr-Asn-Arg-Gln (cyclo(ARAESDEARRCYNDPKCSDFVTNRQ); disulfide 11-17 (inferred)) [25AA Cys/Ser mutant cyclopeptides]	–	30	49	83%	–	–	69±2	48±6	transient increase in antibody-titers	−37±13	–	–
cyc22AA Cys/Cys: 3 cysteine-containing cyclic 22AA beta1-ECII peptide with a Gly closure site (cyclo(RAESDEARRCYNDPKCCDFVTG); disulfide (positions not given here)) [reference compound]	–	–	–	–	–	82.0±5.0	–	–	–	–	–	–
cyclo(Ala-Asp-Glu-Ala-Arg-Arg-Cys-Tyr-Asn-Asp-Pro-Lys-Ser-Cys-Asp-Phe-Val-Gln) (cyclo(ADEARRCYNDPKSCDFVQ); disulfide 7-14 (inferred)) [18AA Ser/Cys with Gln-]	–	–	–	–	–	–	1±2	47±3	–	–	clearly less efficient	about 7%

Reference: patent US9062095B2, “Mutant double cyclized receptor peptides inhibiting β1-adrenoceptor antibodies” (JULIUS-MAXIMILIANS-UNIVERSTITAT-WURZBURG, priority 2007, dated 2015)
